Test results taken from PubChem BioAssay (NCI).
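These data come from cells grown in 96-well plates and exposed to compound for 48 hours at five concentrations. GI50 = concentration required for 50% inhibition of growth. TGI denotes the concentration required for complete inhibition of growth.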

Assays:
Assay in all cases: inhibition of tumour cell growth, NCI panel, 48 h; in the data active means GI50 below about 0.43 µM; inactive means the rest
SF-268 CNS = tested on: SF-268 CNS
LXFL 529 NSCLC = tested on: LXFL 529 NSCLC
HCT-15 colon = tested on: HCT-15 colon
NCI-H226 lung = tested on: NCI-H226 lung
UACC-257 melanoma = tested on: UACC-257 melanoma
HOP-92 NSCLC = tested on: HOP-92 NSCLC
NCI-H23 lung = tested on: NCI-H23 lung
KM12 colon = tested on: KM12 colon
EKVX NSCLC = tested on: EKVX NSCLC
OVCAR-8 ovarian = tested on: OVCAR-8 ovarian
OVCAR-5 ovarian = tested on: OVCAR-5 ovarian
M19-MEL melanoma = tested on: M19-MEL melanoma
SK-MEL-2 melanoma = tested on: SK-MEL-2 melanoma
SNB-78 CNS = tested on: SNB-78 CNS
ACHN renal = tested on: ACHN renal
LOX IMVI melanoma = tested on: LOX IMVI melanoma
CCRF-CEM leukemia = tested on: CCRF-CEM leukemia
SW-620 colon = tested on: SW-620 colon
DMS 273 small cell lung = tested on: DMS 273 small cell lung
MOLT-4 leukemia = tested on: MOLT-4 leukemia
DMS 114 small cell lung = tested on: DMS 114 small cell lung
DLD-1 colon = tested on: DLD-1 colon
U251 CNS = tested on: U251 CNS
UACC-62 melanoma = tested on: UACC-62 melanoma
RXF-631 renal = tested on: RXF-631 renal
OVCAR-4 ovarian = tested on: OVCAR-4 ovarian
NCI-H460 lung = tested on: NCI-H460 lung
OVCAR-3 ovarian = tested on: OVCAR-3 ovarian
RPMI-8226 leukemia = tested on: RPMI-8226 leukemia
TK-10 renal = tested on: TK-10 renal
SK-OV-3 ovarian = tested on: SK-OV-3 ovarian
M14 melanoma = tested on: M14 melanoma
NCI-H522 lung = tested on: NCI-H522 lung
COLO 205 colon = tested on: COLO 205 colon
A549 NSCLC = tested on: A549 NSCLC
SNB-75 CNS = tested on: SNB-75 CNS
IGROV1 ovarian = tested on: IGROV1 ovarian
A498 renal = tested on: A498 renal
UO-31 renal = tested on: UO-31 renal
786-0 renal = tested on: 786-0 renal
HL-60(TB) leukemia = tested on: HL-60(TB) leukemia
SK-MEL-5 melanoma = tested on: SK-MEL-5 melanoma
SF-295 CNS = tested on: SF-295 CNS
SR leukemia = tested on: SR leukemia
HOP-62 NSCLC = tested on: HOP-62 NSCLC
CAKI-1 renal = tested on: CAKI-1 renal
HT29 colon = tested on: HT29 colon
SF-539 CNS = tested on: SF-539 CNS
K-562 leukemia = tested on: K-562 leukemia
HCT-116 colon = tested on: HCT-116 colon
SK-MEL-28 melanoma = tested on: SK-MEL-28 melanoma
HOP-18 NSCLC = tested on: HOP-18 NSCLC
KM20L2 colon = tested on: KM20L2 colon
SNB-19 CNS = tested on: SNB-19 CNS
SN12C renal = tested on: SN12C renal
MALME-3M melanoma = tested on: MALME-3M melanoma
HCC-2998 colon = tested on: HCC-2998 colon
XF 498 CNS = tested on: XF 498 CNS
RXF 393 renal = tested on: RXF 393 renal

NC(=O)c1cn(C2OC(CO)C(O)C2O)c(=O)[nH]c1=O (stereo not given)
> 100 µM: TGI (SF-268 CNS) | TGI (LXFL 529 NSCLC) | TGI (HCT-15 colon) | TGI (NCI-H226 lung) | TGI (UACC-257 melanoma) | TGI (HOP-92 NSCLC) | TGI (NCI-H23 lung) | TGI (KM12 colon) | TGI (EKVX NSCLC) | TGI (OVCAR-8 ovarian) | TGI (OVCAR-5 ovarian) | TGI (M19-MEL melanoma) | TGI (SK-MEL-2 melanoma) | TGI (SNB-78 CNS) | TGI (ACHN renal) | TGI (LOX IMVI melanoma) | TGI (CCRF-CEM leukemia) | TGI (SW-620 colon) | TGI (DMS 273 small cell lung) | TGI (MOLT-4 leukemia) | TGI (DMS 114 small cell lung) | TGI (DLD-1 colon) | TGI (U251 CNS) | TGI (UACC-62 melanoma) | TGI (RXF-631 renal) | TGI (OVCAR-4 ovarian) | TGI (NCI-H460 lung) | TGI (OVCAR-3 ovarian) | TGI (RPMI-8226 leukemia) | TGI (TK-10 renal) | TGI (SK-OV-3 ovarian) | TGI (M14 melanoma) | TGI (NCI-H522 lung) | TGI (COLO 205 colon) | TGI (A549 NSCLC) | TGI (SNB-75 CNS) | TGI (IGROV1 ovarian) | TGI (A498 renal) | TGI (UO-31 renal) | TGI (786-0 renal) | TGI (HL-60(TB) leukemia) | TGI (SK-MEL-5 melanoma) | TGI (SF-295 CNS) | TGI (SR leukemia) | TGI (HOP-62 NSCLC) | TGI (CAKI-1 renal) | TGI (HT29 colon) | TGI (SF-539 CNS) | TGI (K-562 leukemia) | TGI (HCT-116 colon) | TGI (SK-MEL-28 melanoma)

COC[C@@H]1[C@H]2OC(C)(C)O[C@H]2C(=O)N1C(=O)c1ccc(OC)cc1
> 100 µM: TGI (SF-268 CNS) | TGI (LXFL 529 NSCLC) | TGI (HCT-15 colon) | TGI (NCI-H226 lung) | TGI (UACC-257 melanoma) | TGI (HOP-18 NSCLC) | TGI (HOP-92 NSCLC) | TGI (NCI-H23 lung) | TGI (KM12 colon) | TGI (EKVX NSCLC) | TGI (OVCAR-8 ovarian) | TGI (KM20L2 colon) | TGI (OVCAR-5 ovarian) | TGI (M19-MEL melanoma) | TGI (SK-MEL-2 melanoma) | TGI (SNB-78 CNS) | TGI (ACHN renal) | TGI (LOX IMVI melanoma) | TGI (CCRF-CEM leukemia) | TGI (SW-620 colon) | TGI (DMS 273 small cell lung) | TGI (MOLT-4 leukemia) | TGI (DMS 114 small cell lung) | TGI (DLD-1 colon) | TGI (U251 CNS) | TGI (UACC-62 melanoma) | TGI (OVCAR-4 ovarian) | TGI (NCI-H460 lung) | TGI (OVCAR-3 ovarian) | TGI (RPMI-8226 leukemia) | TGI (TK-10 renal) | TGI (SK-OV-3 ovarian) | TGI (M14 melanoma) | TGI (NCI-H522 lung) | TGI (COLO 205 colon) | TGI (A549 NSCLC) | TGI (SNB-75 CNS) | TGI (IGROV1 ovarian) | TGI (A498 renal) | TGI (UO-31 renal) | TGI (786-0 renal) | TGI (HL-60(TB) leukemia) | TGI (SK-MEL-5 melanoma) | TGI (SNB-19 CNS) | TGI (SF-295 CNS) | TGI (SR leukemia) | TGI (HOP-62 NSCLC) | TGI (CAKI-1 renal) | TGI (HT29 colon) | TGI (SF-539 CNS) | TGI (SN12C renal) | TGI (MALME-3M melanoma) | TGI (HCC-2998 colon) | TGI (K-562 leukemia) | TGI (XF 498 CNS) | TGI (RXF 393 renal) | TGI (HCT-116 colon) | TGI (SK-MEL-28 melanoma)

Nc1ccccc1Nc1ccccc1C(=O)[O-].Nc1ccccc1Nc1ccccc1C(=O)[O-].[Ni+2]
> 100 µM: TGI (SF-268 CNS) | TGI (HCT-15 colon) | TGI (NCI-H226 lung) | TGI (UACC-257 melanoma) | TGI (HOP-92 NSCLC) | TGI (NCI-H23 lung) | TGI (KM12 colon) | TGI (EKVX NSCLC) | TGI (OVCAR-8 ovarian) | TGI (KM20L2 colon) | TGI (OVCAR-5 ovarian) | TGI (ACHN renal) | TGI (LOX IMVI melanoma) | TGI (CCRF-CEM leukemia) | TGI (SW-620 colon) | TGI (MOLT-4 leukemia) | TGI (U251 CNS) | TGI (UACC-62 melanoma) | TGI (RXF-631 renal) | TGI (OVCAR-4 ovarian) | TGI (NCI-H460 lung) | TGI (OVCAR-3 ovarian) | TGI (RPMI-8226 leukemia) | TGI (TK-10 renal) | TGI (SK-OV-3 ovarian) | TGI (M14 melanoma) | TGI (COLO 205 colon) | TGI (A549 NSCLC) | TGI (SNB-75 CNS) | TGI (IGROV1 ovarian) | TGI (UO-31 renal) | TGI (786-0 renal) | TGI (HL-60(TB) leukemia) | TGI (SK-MEL-5 melanoma) | TGI (SNB-19 CNS) | TGI (SF-295 CNS) | TGI (SR leukemia) | TGI (CAKI-1 renal) | TGI (HT29 colon) | TGI (SF-539 CNS) | TGI (SN12C renal) | TGI (MALME-3M melanoma) | TGI (HCC-2998 colon) | TGI (K-562 leukemia) | TGI (RXF 393 renal) | TGI (HCT-116 colon) | TGI (SK-MEL-28 melanoma)
inactive: GI50 (NCI-H226 lung) > 100 µM | GI50 (HOP-92 NSCLC) > 100 µM | GI50 (LOX IMVI melanoma) > 100 µM | GI50 (RXF-631 renal) > 100 µM | GI50 (OVCAR-4 ovarian) 67.8 µM | GI50 (HL-60(TB) leukemia) > 100 µM | GI50 (SR leukemia) > 100 µM | GI50 (RXF 393 renal) 60.1 µM
86 µM: TGI (NCI-H522 lung)
